From patent US20090246292A1, “ANTIMICROBIAL FORMULATIONS COMPRISING A QUINONE AND A COPPER SALT” (priority 2006, published 2009)
Where “and” joins values, the source holds several entries; their conditions need not be identical. Equal values may be shown once.

Columns and labels:
P. granulosum PRP-019 = test: Disc diffusion assay (DDA), also supplemented; type: cell-based; settings: 200 μg per disc
Experimental: (§6) The propionibacteria were cultured and maintained on Wilkins-Chalgren Anaerobe Medium (agar and broth) at pH 6.0; all cultures were incubated anaerobically at 37° C. for 72 hours.
(§7) A sterile paper disc was impregnated with a sample of the test compound in a suitable solvent and 30 minutes allowed for the solvents to evaporate (where possible). The disc was then placed on an agar plate onto which the test micro-organism had been inoculated. The plate was then incubated under the conditions described above, following which it was examined visually for signs of bacterial growth. […] The diameter of this zone of “inhibition” was measured using a ProtoCOL™ automated zone sizer (Synbiosis, Cambridge, UK).
(§8) For assays using Propionibacterium spp. strains the supplements used in the examples below were lipid (either Tween™ 80 or triolein, both at 1% v/v) and sodium chloride (100 mM).

P. acnes PRP-102 [1] = test: Disc diffusion assay (DDA), also supplemented; type: cell-based, Propionibacterium acnes; settings: 200 μg per disc
Experimental: as §6, §7, §8

P. granulosum PRP-044 [2] = test: Disc diffusion assay (DDA), also supplemented; type: cell-based; settings: 200 μg per disc
Experimental: as §6, §7, §8

P. acnes PRP-002 [3] = test: Disc diffusion assay (DDA), also supplemented; type: cell-based, Propionibacterium acnes; settings: 200 μg per disc
Experimental: as §6, §7, §8

P. acnes PRP-059 [4] = test: Disc diffusion assay (DDA), also supplemented; type: cell-based, Propionibacterium acnes; settings: 200 μg per disc
Experimental: as §6, §7, §8

P. acnes PRP-102 [5] = settings: P. acnes PRP-102 (resistance Tet/MLS); agar dilution
Experimental: (§1) This is a standard international method for quantitatively assessing the antimicrobial activity of a compound in a solid medium. […] A set amount of these antimicrobial stock solutions was then added to molten agar medium (ca. 55° C.), mixed thoroughly, poured into sterile Petri dishes and allowed to cool/set. The culture medium was as described above.
(§2) A Multipoint™ Inoculator (AQS Manufacturing Ltd, UK) was used to inoculate the plates by spotting the inocula onto the surface of the agar, delivering approximately 1 to 2 μl per spot (yielding 10^5 CFU (colony forming units) per spot).
(§3) The plate(s) were then incubated under the conditions described above, following which they were examined visually for signs of bacterial growth. The MIC value was ascertained when there was a marked reduction in, or total loss of, growth on the test plate at the lowest concentration as compared to that of the growth on the control plate.

P. granulosum NCTC 11865 [6] = settings: P. granulosum NCTC 11865 (resistance None); agar dilution
Experimental: as §1, §2, §3

P. acnes PRP-002 [7] = settings: P. acnes PRP-002 (resistance Tet/MLS); agar dilution
Experimental: as §1, §2, §3

P. acnes PRP-059 [8] = settings: P. acnes PRP-059 (resistance MLS); agar dilution
Experimental: as §1, §2, §3

P. acnes PRP-039 = P. acnes PRP-039 (resistance Tet/MLS); agar dilution
Experimental: as §1, §2, §3

P. acnes PRP-008 = P. acnes PRP-008 (resistance Clin); agar dilution
Experimental: as §1, §2, §3

P. acnes PRP-101 = P. acnes PRP-101 (resistance Tet/MLS); agar dilution
Experimental: as §1, §2, §3

P. granulosum PRP-021 = P. granulosum PRP-021 (resistance MLS); agar dilution
Experimental: as §1, §2, §3

P. granulosum PRP-044 [9] = settings: P. granulosum PRP-044 (resistance MLS); agar dilution
Experimental: as §1, §2, §3

P. granulosum PRP-043 = test: Disc diffusion assay (DDA), also supplemented; type: cell-based; settings: 200 μg per disc
Experimental: as §6, §7, §8

P. granulosum PRP-006 = test: Disc diffusion assay (DDA), also supplemented; type: cell-based; settings: 200 μg per disc
Experimental: as §6, §7, §8

P. acnes NCTC 737 [10] = test: Synergy disc diffusion assay (SDDA), also supplemented
Experimental: as §6
(e) Synergy Disc Diffusion Assay (SDDA)
This is a variation on the DDA method, in which two compounds are tested together for their combined antimicrobial activity.
Two test compounds A and B were placed on a single paper disc and the above described DDA procedure repeated.
(f) Supplemented Disc Diffusion Assays
as §8

[11] = test system: panel of different propionibacterium strains; test: MIC by agar dilution and (S)DDA, whole panel; type: cell-based, Propionibacterium spp; settings: compound alone; also under supplemented conditions
Experimental: For (S)DDA experiments 200 μg of each test compound was added per disc. […] MIC experiments were performed in duplicate, DDA experiments as single replicates only. SDDA experiments were conducted in triplicate.
The activity of the salt (MIC by agar dilution and DDA) was also determined against a panel of different propionibacterium strains. Supplemented DDA experiments were also carried out. […] DMSO was used as the diluting solvent. MIC experiments were performed in duplicate and DDA experiments as single replicates only.

P. granulosum PRP-055 = test: Disc diffusion assay (DDA), also supplemented; type: cell-based; settings: 200 μg per disc
Experimental: as §6, §7, §8

S. aureus ATCC 29213 [12] = test: Minimum bactericidal concentration (MBC) assay; type: cell-based, Staphylococcus aureus
Experimental: (§4) (b) Minimum Bactericidal Concentration (MBC) Assay
(§5) Following incubation they were examined visually for bacterial growth.

S. aureus ATCC 29213 [13] = test: Disc diffusion assay (DDA), also supplemented
P. granulosum NCTC 11865 [14] = test: Disc diffusion assay (DDA), also supplemented; type: cell-based; settings: 200 μg per disc
Experimental: as §6, §7, §8

S. aureus ATCC 29213 [15] = test: Minimum inhibitory concentration (MIC) assay; type: cell-based, Staphylococcus aureus
Description: (a) Minimum Inhibitory Concentration (MIC) Assay
The culture media were as described above.
The assays included both negative (culture medium with no micro-organisms) and positive (culture medium plus diluting solvent plus micro-organism) controls.

P. acnes NCTC 737 [16] = test: Minimum bactericidal concentration (MBC) assay; type: cell-based, Propionibacterium acnes
Experimental: as §4, §5

S. aureus ATCC 29213 [17] = test: Synergy disc diffusion assay (SDDA), also supplemented;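 also: disc diffusion on Mueller-Hinton agar at pH 7.2, aerobic incubation at 37 °C lasting 19-20 h, two compounds assessed jointly for combined antimicrobial effect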

O.O.O.O.O.O=S(=O)([O-])[O-].[Cu+2] [Copper (II) sulphate pentahydrate]
DDA + salt (P. granulosum PRP-019): 25.84 mm
DDA + lipid (P. granulosum PRP-019; 1% (v/v) triolein): 24.02 mm
DDA (P. granulosum PRP-019; single replicate): 22.80 mm
DDA (P. granulosum PRP-019; Table 12 series): 24.15 mm
DDA + salt (P. acnes PRP-102 [1]): 49.25 mm
DDA + lipid (P. acnes PRP-102 [1]; 1% (v/v) triolein): 50.77 mm
DDA (P. acnes PRP-102 [1]; single replicate): 46.52 mm
DDA (P. acnes PRP-102 [1]; Table 12 series): 51.65 mm
DDA + salt (P. granulosum PRP-044 [2]): 31.92 mm
DDA + lipid (P. granulosum PRP-044 [2]; 1% (v/v) triolein): 26.45 mm
DDA (P. granulosum PRP-044 [2]; single replicate): 27.36 mm
DDA (P. granulosum PRP-044 [2]; Table 12 series): 27.81 mm
DDA + salt (P. acnes PRP-002 [3]): 50.77 mm
DDA + lipid (P. acnes PRP-002 [3]; 1% (v/v) triolein): 47.13 mm
DDA (P. acnes PRP-002 [3]; single replicate): 49.25 mm
DDA (P. acnes PRP-002 [3]; Table 12 series): 57.92 mm
DDA + salt (P. acnes PRP-059 [4]): 55.33 mm
DDA + lipid (P. acnes PRP-059 [4]; 1% (v/v) triolein): 48.95 mm
DDA (P. acnes PRP-059 [4]; single replicate): 48.04 mm
DDA (P. acnes PRP-059 [4]; Table 12 series): 50.70 mm
MIC (P. acnes PRP-102 [5]): 7.8 µg/mL
MIC (P. granulosum NCTC 11865 [6]): 7.8 µg/mL
MIC (P. acnes PRP-002 [7]): 7.8 µg/mL
MIC (P. acnes PRP-059 [8]): 7.8 µg/mL
MIC (P. acnes PRP-039): 7.8 µg/mL
MIC (P. acnes PRP-008): 7.8 µg/mL
MIC (P. acnes PRP-101): 7.8 µg/mL
MIC (P. granulosum PRP-021): 62.5 µg/mL
MIC (P. granulosum PRP-044 [9]): 62.5 µg/mL
DDA + salt (P. granulosum PRP-043): 50.17 mm
DDA + lipid (P. granulosum PRP-043; 1% (v/v) triolein): 41.35 mm
DDA (P. granulosum PRP-043; single replicate): 46.82 mm
DDA (P. granulosum PRP-043; Table 12 series): 56.56 mm
DDA + salt (P. granulosum PRP-006): 37.09 mm
DDA + lipid (P. granulosum PRP-006; 1% (v/v) triolein): 30.71 mm
DDA (P. granulosum PRP-006; single replicate): 31.62 mm
DDA (P. granulosum PRP-006; Table 12 series): 27.91 mm
SDDA area increase (P. acnes NCTC 737 [10]): 108.63%
SDDA increase (P. acnes NCTC 737 [10]): 22.11 mm
SDDA with TBHQ (P. acnes NCTC 737 [10]): 71.86 mm
SL SDDA area increase (P. acnes NCTC 737 [10]): 64.85%
SL SDDA increase (P. acnes NCTC 737 [10]): 14.18 mm
SL SDDA with TBHQ (P. acnes NCTC 737 [10]): 64.14 mm
activity against propionibacterium strains tested (in words) [11]: excellent level of activity
DDA + salt (P. granulosum PRP-055): 28.88 mm
DDA + lipid (P. granulosum PRP-055; 1% (v/v) triolein): 27.97 mm
DDA (P. granulosum PRP-055; single replicate): 27.67 mm
DDA (P. granulosum PRP-055; Table 12 series): 31.78 mm
MBC (S. aureus ATCC 29213 [12]): >250 µg/mL
DDA (S. aureus ATCC 29213 [13]): 0 mm and 0.00 (±0.00) mm
DDA + lipid (S. aureus ATCC 29213 [13]): 0 mm
DDA + salt (S. aureus ATCC 29213 [13]): 0 mm
DDA + salt & serum (S. aureus ATCC 29213 [13]): 0 mm and 0.00 (±0.00) mm
DDA + salt (P. granulosum NCTC 11865 [14]): 48.34 mm
DDA + lipid (P. granulosum NCTC 11865 [14]; 1% (v/v) triolein): 41.65 mm
DDA (P. granulosum NCTC 11865 [14]; single replicate): 48.34 mm
DDA (P. granulosum NCTC 11865 [14]; Table 12 series): 53.32 mm
MIC (S. aureus ATCC 29213 [15]): >250 µg/mL
MBC (P. acnes NCTC 737 [16]): 125 µg/mL
SDDA area increase (S. aureus ATCC 29213 [17]): 88.33%
SDDA increase (S. aureus ATCC 29213 [17]): 15.05 mm
SDDA with TBHQ (S. aureus ATCC 29213 [17]): 55.47 mm
SS SDDA area increase (S. aureus ATCC 29213 [17]): 10.90%
SS SDDA increase (S. aureus ATCC 29213 [17]): 2.32 mm
SS SDDA with TBHQ (S. aureus ATCC 29213 [17]): 46.00 mm
